Measured values reported in ChEMBL document CHEMBL3120109, “Discovery of Thienoimidazole-Based HCV NS5A Genotype 1a and 1b Inhibitors” (ACS Med Chem Lett, 2014).

Columns and labels:
[1] = Oral bioavailability in rat at 3 mg/kg; format: ADME, organism-based; settings: in vivo
[2] = Half life in rat at 3 mg/kg, po; format: ADME, organism-based; design: dose 3 mg/kg, route oral; settings: in vivo
[3] = AUC (0 to 8 hrs) in rat at 3 mg/kg, po; format: ADME, organism-based; design: time < 8 hr, dose 3 mg/kg, route oral; settings: plasma
[4] = Volume of distribution at steady state in rat at 3 mg/kg, iv; format: ADME, organism-based; design: dose 3 mg/kg, route intravenous; settings: in vivo, read-out: Vdss
[5] = Half life in rat at 3 mg/kg, iv; format: ADME, organism-based; design: dose 3 mg/kg, route intravenous; settings: in vivo
[6] = Clearance in rat at 3 mg/kg, iv; format: ADME, organism-based; design: dose 3 mg/kg, route intravenous; settings: in vivo
[7] = Efflux ratio of permeability from basolateral to apical over apical to basolateral side in human Caco2 cells; format: ADME, cell-based; settings: Caco-2
[8] = Metabolic stability in human liver microsomes assessed as intact compound level at 5 uM after 1 hr; format: ADME; settings: read-out: Stability
[9] = Metabolic stability in rat liver microsomes assessed as intact compound level at 5 uM after 1 hr; format: ADME; settings: read-out: Stability
[10] = Cytotoxicity against human HuhET cells by [3H]thymidine incorporation assay; format: cell-based
Hepatitis C virus [11] = experiment: Ratio of EC50 for Hepatitis C virus genotype 1b harboring NS5A Y93H mutant gene to EC50 for Hepatitis C virus genotype 1b harboring wild type NS5A; format: functional, Hepacivirus hominis
Hepatitis C virus [12] = experiment: Ratio of EC50 for Hepatitis C virus genotype 1a harboring NS5A Q30R mutant gene to EC50 for Hepatitis C virus genotype 1a harboring wild type NS5A; format: functional, Hepacivirus hominis, subtype 1a
Hepatitis C virus [13] = experiment: Ratio of EC50 for Hepatitis C virus genotype 1a harboring NS5A M28T mutant gene to EC50 for Hepatitis C virus genotype 1a harboring wild type NS5A; format: functional, Hepacivirus hominis, subtype 1a
Hepatitis C virus [14] = experiment: Ratio of EC50 for Hepatitis C virus genotype 1a harboring NS5A Y93C mutant gene to EC50 for Hepatitis C virus genotype 1a harboring wild type NS5A; format: functional, Hepacivirus hominis, subtype 1a
Hepatitis C virus [15] = experiment: Ratio of EC50 for Hepatitis C virus genotype 1a harboring NS5A Y93H mutant gene to EC50 for Hepatitis C virus genotype 1a harboring wild type NS5A; format: functional, Hepacivirus hominis, subtype 1a
[16] = Ratio of EC50 for Hepatitis C virus genotype 1a infected in W11.8 cells to EC50 for Hepatitis C virus genotype 1b infected in human Huh-5.2 cells; format: functional
Hepatitis C virus [17] = experiment: Antiviral activity against Hepatitis C virus genotype 1b infected in human Huh-5.2 cells assessed as decrease in HCV replicon RNA replication after 4 days by luciferase assay; format: functional, organism-based, Hepacivirus hominis; settings: Huh-5-2, 96 h
Hepatitis C virus [18] = experiment: Antiviral activity against Hepatitis C virus genotype 1a infected in W11.8 cells assessed as decrease in NS5A expression in replicon cell after 4 days by luminescence based ELISA; format: functional, organism-based, Hepacivirus hominis; settings: subtype 1a, W11.8, 96 h

Compound	CC50 [10] [nM]	Ratio EC50 [16]	EC50 (Hepatitis C virus [17]) [nM]	EC50 (Hepatitis C virus [18]) [nM]	further results
COC(=O)N[C@H](C(=O)N1C[C@@H](C)C[C@H]1c1ncc(-c2ccc(-c3ccc(-c4cc5[nH]c([C@@H]6C[C@H](C)CN6C(=O)[C@@H](NC(=O)OC)C(C)C)nc5s4)cc3)cc2)[nH]1)C(C)C	> 20000	2	0.008	0.017	bioavailability [1]: 25.6%; half-life [2]: 8.3 h; AUC(0-t) at 8 h [3]: 1540 ng·h/mL; Vd [4]: 2.4 L/kg; half-life [5]: 6.1 h; clearance [6]: 5.3 mL/min/kg; efflux ratio [7]: 2; remaining at 1 h, 5 µM [8]: 100%; remaining at 1 h, 5 µM [9]: 91%; Ratio EC50 (Hepatitis C virus [11]): 900; Ratio EC50 (Hepatitis C virus [12]): >500; Ratio EC50 (Hepatitis C virus [13]): >500; Ratio EC50 (Hepatitis C virus [14]): >15000; Ratio EC50 (Hepatitis C virus [15]): >15000
COC(=O)N[C@H](C(=O)N1C[C@@H](C)C[C@H]1c1ncc(-c2ccc(-c3ccc(-c4cc5[nH]c([C@@H]6C[C@H](C)CN6C(=O)[C@@H](NC(=O)OC)C(C)C)nc5s4)cc3)c(C)c2)[nH]1)C(C)C	> 20000	31	0.002	0.062	–
COC(=O)N[C@H](C(=O)N1C[C@@H](C)C[C@H]1c1ncc(-c2cccc(-c3ccc(-c4cc5[nH]c([C@@H]6C[C@H](C)CN6C(=O)[C@@H](NC(=O)OC)C(C)C)nc5s4)cc3)c2)[nH]1)C(C)C	> 20000	1071	0.007	7.5	bioavailability [1]: 16%; half-life [2]: 5.1 h; AUC(0-t) at 8 h [3]: 490 ng·h/mL; Vd [4]: 4.8 L/kg; half-life [5]: 5.1 h; clearance [6]: 13.5 mL/min/kg
COC(=O)N[C@H](C(=O)N1CCC[C@H]1c1ncc(-c2ccc(-c3ccc(-c4cnc([C@@H]5CCCN5C(=O)[C@@H](NC(=O)OC)C(C)C)[nH]4)cc3)cc2)[nH]1)C(C)C [DACLATASVIR]	–	–	–	0.05	–
COC(=O)N[C@H](C(=O)N1C[C@@H](C)C[C@H]1c1nc2cc(-c3ccc(-c4ccc(-c5cc6[nH]c([C@@H]7C[C@H](C)CN7C(=O)[C@@H](NC(=O)OC)C(C)C)nc6s5)cc4)cc3)ccc2[nH]1)C(C)C	> 20000	–	0.024	0.622	–
COC(=O)N[C@H](C(=O)N1C[C@@H](C)C[C@H]1c1ncc(-c2cc3sc(-c4ccc(-c5cc6[nH]c([C@@H]7C[C@H](C)CN7C(=O)[C@@H](NC(=O)OC)C(C)C)nc6s5)cc4)cc3s2)[nH]1)C(C)C	> 20000	3.8	0.014	0.054	bioavailability [1]: 6.7%; half-life [2]: 10.8 h; AUC(0-t) at 8 h [3]: 460 ng·h/mL; Vd [4]: 2 L/kg; half-life [5]: 5.1 h; clearance [6]: 5.1 mL/min/kg
COC(=O)N[C@H](C(=O)N1C[C@@H](C)C[C@H]1c1ncc(-c2csc3ccc(-c4ccc(-c5cc6[nH]c([C@@H]7C[C@H](C)CN7C(=O)[C@@H](NC(=O)OC)C(C)C)nc6s5)cc4)cc23)[nH]1)C(C)C	16400	–	6.8	> 100	–
COC(=O)N[C@H](C(=O)N1C[C@@H](C)C[C@H]1c1ncc(-c2ccc(-c3ccc(-c4cc5[nH]c([C@@H]6C[C@H](C)CN6C(=O)[C@@H](NC(=O)OC)C(C)C)nc5s4)cc3)cc2F)[nH]1)C(C)C	> 20000	–	0.003	0.071	–
COC(=O)N[C@H](C(=O)N1C[C@@H](C)C[C@H]1c1nc2cc(-c3ccc(-c4cc5[nH]c([C@@H]6C[C@H](C)CN6C(=O)[C@@H](NC(=O)OC)C(C)C)nc5s4)cc3)ccc2[nH]1)C(C)C	> 20000	–	0.005	0.619	–
COC(=O)N[C@H](C(=O)N1C[C@@H](C)C[C@H]1c1ncc(C#Cc2ccc(-c3ccc(-c4cc5[nH]c([C@@H]6C[C@H](C)CN6C(=O)[C@@H](NC(=O)OC)C(C)C)nc5s4)cc3)cc2)[nH]1)C(C)C	> 20000	112	0.01	1.12	–
COC(=O)N[C@H](C(=O)N1C[C@@H](C)C[C@H]1c1nc2cc(/C=C/c3ccc(-c4cc5[nH]c([C@@H]6C[C@H](C)CN6C(=O)[C@@H](NC(=O)OC)C(C)C)nc5s4)cc3)ccc2[nH]1)C(C)C	> 20000	–	0.004	0.038	bioavailability [1]: 14.1%; half-life [2]: 5 h; AUC(0-t) at 8 h [3]: 820 ng·h/mL; Vd [4]: 2.7 L/kg; half-life [5]: 6.6 h; clearance [6]: 6 mL/min/kg
COC(=O)N[C@H](C(=O)N1C[C@@H](C)C[C@H]1c1nc2cc(C#Cc3ccc(-c4cc5[nH]c([C@@H]6C[C@H](C)CN6C(=O)[C@@H](NC(=O)OC)C(C)C)nc5s4)cc3)ccc2[nH]1)C(C)C	> 20000	–	0.004	0.177	–
COC(=O)N[C@H](C(=O)N1C[C@@H](C)C[C@H]1c1ncc(C#Cc2ccc(-c3cc4[nH]c([C@@H]5C[C@H](C)CN5C(=O)[C@@H](NC(=O)OC)C(C)C)nc4s3)cc2)[nH]1)C(C)C	> 20000	50	0.24	12	–
COC(=O)N[C@H](C(=O)N1C[C@@H](C)C[C@H]1c1ncc(-c2ccc(-c3ccc(-c4cc5[nH]c([C@@H]6C[C@H](C)CN6C(=O)[C@@H](NC(=O)OC)C(C)C)nc5s4)cc3)s2)[nH]1)C(C)C	18300	5	0.007	0.034	–
COC(=O)N[C@H](C(=O)N1C[C@@H](C)C[C@H]1c1ncc(-c2ccc(-c3ccc(-c4cc5[nH]c([C@@H]6C[C@H](C)CN6C(=O)[C@@H](NC(=O)OC)C(C)C)nc5s4)cc3)c(F)c2)[nH]1)C(C)C	3100	18	0.013	0.235	–
COC(=O)N[C@H](C(=O)N1C[C@@H](C)C[C@H]1c1ncc(-c2ccc(-c3ccc(-c4cc5[nH]c([C@@H]6C[C@H](C)CN6C(=O)[C@@H](NC(=O)OC)C(C)C)nc5s4)cc3)cc2C)[nH]1)C(C)C	> 20000	23	0.005	0.114	–
